Measured values as given in ChEMBL document CHEMBL1201862, “PubChem BioAssay data set” (2004).
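Each compound was tested at five concentrations against cells in 96-well plates for 48 hours. At the GI50, growth is halved.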 Active and inactive are the calls of the source. Cut-off read from the data, not from the text of the source: active = GI50 up to about 1.1 µM and inactive = higher.

Columns and labels:
Test in all cases: DTP human tumour cell line panel, 48 h
TK-10 = test system: TK-10
KM12 = test system: KM12
SK-MEL-5 = test system: SK-MEL-5
A549 = test system: A549
SNB-19 = test system: SNB-19
SR = test system: SR
OVCAR-8 = test system: OVCAR-8
HL-60 = test system: HL-60
EKVX = test system: EKVX
DMS-114 = test system: DMS-114
UO-31 = test system: UO-31
SW-620 = test system: SW-620
IGROV-1 = test system: IGROV-1
SN12C = test system: SN12C
NCI-H226 = test system: NCI-H226
CAKI-1 = test system: CAKI-1

Measured: GI50

COC1(OC)CC2C(=O)N(Cc3ccccc3)C1C=C2S(=O)(=O)c1ccccc1 (configuration not stated)
inactive: TK-10 25.1 µM | KM12 17.4 µM | SK-MEL-5 13.8 µM | A549 21.9 µM | SNB-19 24 µM | SR 15 µM | OVCAR-8 17.9 µM | HL-60 11.7 µM | EKVX 15.6 µM | DMS-114 17.2 µM | UO-31 25 µM | SW-620 15.2 µM | IGROV-1 32.9 µM | SN12C 16.4 µM | NCI-H226 27.9 µM

CCN(CC)C(=O)c1c(Cl)cc(N(CC)CC)oc1=O
inactive: TK-10 > 100 µM | KM12 > 100 µM | A549 > 100 µM | SNB-19 > 100 µM | SR > 100 µM | OVCAR-8 > 100 µM | HL-60 > 100 µM | EKVX > 100 µM | DMS-114 > 100 µM | UO-31 > 100 µM | SW-620 > 100 µM | IGROV-1 > 100 µM | SN12C > 100 µM | NCI-H226 > 100 µM

CC(=O)Nc1ccc(-c2nnc(SCC(=O)Nc3ccc([N+](=O)[O-])cc3)o2)cc1
inactive: TK-10 14.6 µM | KM12 14.5 µM | SK-MEL-5 13.1 µM | CAKI-1 14.3 µM | A549 17.5 µM | SR 3.18 µM | OVCAR-8 14.6 µM | HL-60 > 100 µM | DMS-114 3.3 µM | UO-31 18.9 µM | SW-620 16.2 µM | IGROV-1 11 µM | SN12C 16.3 µM | NCI-H226 15.7 µM

COc1ccc(OC)c(NC(=O)C(=O)CC(=O)c2sc(-n3nc(-c4ccccc4)cc3-c3ccccc3)nc2C)c1
inactive: TK-10 > 100 µM | KM12 > 100 µM | CAKI-1 > 100 µM | A549 > 100 µM | SNB-19 > 100 µM | SR 27.7 µM | OVCAR-8 > 100 µM | HL-60 > 100 µM | DMS-114 > 100 µM | UO-31 > 100 µM | SW-620 > 100 µM | IGROV-1 > 100 µM | SN12C > 100 µM | NCI-H226 > 100 µM

N#C/C(=C\c1ccccc1F)C(=O)c1ccccc1
inactive: TK-10 > 100 µM | KM12 > 100 µM | SK-MEL-5 > 100 µM | CAKI-1 > 100 µM | A549 > 100 µM | SNB-19 > 100 µM | SR > 100 µM | OVCAR-8 > 100 µM | HL-60 66.7 µM | EKVX > 100 µM | DMS-114 > 100 µM | UO-31 > 100 µM | SW-620 > 100 µM | IGROV-1 > 100 µM | SN12C > 100 µM
